Legend:
ACHN (Kidney Carcinoma) = assay: Bliss excess, mean over the matrix (fraction); higher = more synergy
How it was run: (§1)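 Cell lines in DMEM/F12 or RPMI with 10% FBS were plated in 1536-well plates, held 24 hours at 37°C, 5% CO2, then given two-drug dose matrices for 72 hours (DMSO typically 0.2%). Viability was read by CellTiter-Glo 2.0 luminescence and scaled as inhibition from 0 (vehicle wells) to 1 (blank wells). Combination Emax is the second-highest inhibition in the matrix; Bliss excess is observed combination effect minus expected EA + EB − EA·EB, EA and EB being single-agent effects.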

[1] = tested on: Ca9-22 (Head and Neck Carcinoma); assay: as above
How it was run: as §1

[2] = tested on: Caov-4 (Ovarian Carcinoma); assay: as above
How it was run: as §1

[3] = tested on: HOP-62 (Lung Adenocarcinoma); assay: as above
How it was run: as §1

[4] = tested on: HSC-4 (Oral Cavity Carcinoma); assay: as above
How it was run: as §1

[5] = tested on: Hs-766T (Pancreatic Carcinoma); assay: as above
How it was run: as §1

[6] = tested on: KARPAS-299 (T-Cell Non-Hodgkin's Lymphoma); assay: as above
How it was run: as §1

[7] = tested on: KYSE-450 (Esophageal Squamous Cell Carcinoma); assay: as above
How it was run: as §1

[8] = tested on: LU-65 (Non-Small Cell Lung Carcinoma); assay: as above
How it was run: as §1

[9] = tested on: NCI-H358 (Lung Adenocarcinoma); assay: as above
How it was run: as §1

[10] = tested on: NEC8 (Other Solid Carcinomas); assay: as above
How it was run: as §1

[11] = tested on: NUGC-3 (Gastric Carcinoma); assay: as above
How it was run: as §1

[12] = tested on: OE19 (Esophageal Adenocarcinoma); assay: as above
How it was run: as §1

[13] = tested on: OSC-20 (Oral Cavity Carcinoma); assay: as above
How it was run: as §1

[14] = tested on: PANC-04-03 (Pancreatic Carcinoma); assay: as above
How it was run: as §1

[15] = tested on: TE-1 (Esophageal Squamous Cell Carcinoma); assay: as above
How it was run: as §1

TGW (Neuroblastoma) = assay: as above
How it was run: as §1

TK10 (Kidney Carcinoma) = assay: as above
How it was run: as §1

YH-13 (Glioblastoma) = assay: as above
How it was run: as §1

D-263MG (Glioblastoma) = assay: combination Emax (second highest fraction inhibited in the dose matrix, 72 h); higher = more inhibition; extreme values may be limits of the assay
How it was run: as §1
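Throughout, for Bliss excess, mean over the matrix: after 72 h of two-drug dosing.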

With `COc1cccc(OCCCN)c1-c1cc(Nc2cnc(C#N)cn2)n[nH]1` [Prexasertib] + O=C(c1cc(Cc2n[nH]c(=O)c3ccccc23)ccc1F)N1CCN(C(=O)C2CC2)CC1 [Olaparib] (first compound max 1 µM, 7x7, partner max 10 µM) the Bliss excess (ACHN (Kidney Carcinoma)) was -0.0857, the Bliss excess [1] was -0.007 and the Bliss excess [2] was -0.0542. The Bliss excess [3] was -0.0319, the Bliss excess [4] was 0.029 and the Bliss excess [5] was -0.032. It also gave a Bliss excess [6] of -0.0318, a Bliss excess [7] of -0.025 and a Bliss excess [8] of -0.0678. For the same compound, the Bliss excess [9] was -0.0809, the Bliss excess [10] was 0.0104 and the Bliss excess [11] was -0.143. It also gave a Bliss excess [12] of -0.125, a Bliss excess [13] of -0.013 and a Bliss excess [14] of -0.0415. For the same compound, the Bliss excess [15] was -0.11, the Bliss excess (TGW (Neuroblastoma)) was -0.0665 and the Bliss excess (TK10 (Kidney Carcinoma)) was -0.0975. For the same compound, the Bliss excess (YH-13 (Glioblastoma)) was -0.0598 and the “combination Emax” value (D-263MG (Glioblastoma)) was 0.762.
For `COc1nnc2ccc(N3CCC(c4ccc(OCCN5CCN(C)C(=O)[C@H]5C)cc4)CC3)nn12` [AZD5153] + Cc1c2c(nn1C)CSCc1cc(n(C)n1)CSc1cc(c3ccccc3c1)OCCCc1c(C(=O)O)n(C)c3c-2c(Cl)ccc13 [AZD5991] (first compound max 1 µM, 7x7, partner max 1 µM), the Bliss excess (ACHN (Kidney Carcinoma)) was -0.0565, the Bliss excess [1] was 0.0049 and the Bliss excess [2] was 0.0265. The Bliss excess [3] was -0.0482, the Bliss excess [4] was -0.101 and the Bliss excess [5] was -0.0369. For the same compound, the Bliss excess [6] was -0.0277, the Bliss excess [7] was -0.0579 and the Bliss excess [8] was -0.0445. For the same compound, the Bliss excess [9] was -0.059, the Bliss excess [10] was 0.0672 and the Bliss excess [11] was -0.0233. The Bliss excess [12] was -0.0322, the Bliss excess [13] was -0.0091 and the Bliss excess [14] was -0.0038. It also gave a Bliss excess [15] of -0.0166, a Bliss excess (TGW (Neuroblastoma)) of -0.0523 and a Bliss excess (TK10 (Kidney Carcinoma)) of -0.0459. For the same compound, the Bliss excess (YH-13 (Glioblastoma)) was -0.0069 and the “combination Emax” value (D-263MG (Glioblastoma)) was 0.98.
Compound `CN(C)CCCOc1ccc(-c2ccc3ncc4c(c3c2)n(C2CCOCC2)c(=O)n4C)cn1` [AZD0156] + O=C(c1cc(Cc2n[nH]c(=O)c3ccccc23)ccc1F)N1CCN(C(=O)C2CC2)CC1 [Olaparib] (first compound max 3 µM, partner max 3 µM) has a Bliss excess (ACHN (Kidney Carcinoma)) of 0.0728, a Bliss excess [1] of 0.132 and a Bliss excess [2] of -0.0431. For the same compound, the Bliss excess [3] was -0.0249, the Bliss excess [4] was 0.0226 and the Bliss excess [5] was -0.0741. It also gave a Bliss excess [6] of 0, a Bliss excess [7] of -0.0054 and a Bliss excess [8] of 0.0033. It also gave a Bliss excess [9] of -0.0175, a Bliss excess [10] of 0.104 and a Bliss excess [11] of 0.0093. The Bliss excess [12] was 0.13, the Bliss excess [13] was 0.0433 and the Bliss excess [14] was 0.0481. For the same compound, the Bliss excess [15] was -0.0185, the Bliss excess (TGW (Neuroblastoma)) was 0.106 and the Bliss excess (TK10 (Kidney Carcinoma)) was -0.0279. The Bliss excess (YH-13 (Glioblastoma)) was 0.067 and the “combination Emax” value (D-263MG (Glioblastoma)) was 0.196.
`CC1(C)CCC(CN2CCN(c3ccc(C(=O)NS(=O)(=O)c4ccc(NCC5CCOCC5)c([N+](=O)[O-])c4)c(Oc4cnc5[nH]ccc5c4)c3)CC2)=C(c2ccc(Cl)cc2)C1` [Venetoclax] + C1CN(CCC1(C(=O)N[C@@H](CCO)C2=CC=C(C=C2)Cl)N)C3=NC=NC4=C3C=CN4 [Capivasertib] (first compound max 1 µM, 7x7, partner max 3 µM) gave a Bliss excess (ACHN (Kidney Carcinoma)) of -0.0358, a Bliss excess [1] of -0.0171 and a Bliss excess [2] of -0.0458. The Bliss excess [3] was -0.0565, the Bliss excess [4] was -0.0281 and the Bliss excess [5] was -0.0635. For the same compound, the Bliss excess [6] was -0.0004, the Bliss excess [7] was -0.0296 and the Bliss excess [8] was -0.0377. The Bliss excess [9] was -0.0591, the Bliss excess [10] was -0.0125 and the Bliss excess [11] was -0.0102. For the same compound, the Bliss excess [12] was -0.016, the Bliss excess [13] was -0.0354 and the Bliss excess [14] was -0.0732. It also gave a Bliss excess [15] of -0.0236, a Bliss excess (TGW (Neuroblastoma)) of -0.0211 and a Bliss excess (TK10 (Kidney Carcinoma)) of -0.0574. For the same compound, the Bliss excess (YH-13 (Glioblastoma)) was -0.039 and the “combination Emax” value (D-263MG (Glioblastoma)) was 0.202.
Compound `NC1(C(=O)N[C@@H](CCO)c2ccc(Cl)cc2)CCN(c2ncnc3[nH]ccc23)CC1` [Capivasertib] + CC(=O)c1c(C)c2cnc(Nc3ccc(N4CCNCC4)cn3)nc2n(C2CCCC2)c1=O [Palbociclib] (first compound max 10 µM, 7x7, partner max 10 µM) has a Bliss excess (ACHN (Kidney Carcinoma)) of 0.003, a Bliss excess [1] of 0.0171 and a Bliss excess [2] of 0.0152. The Bliss excess [3] was -0.04, the Bliss excess [4] was -0.0777 and the Bliss excess [5] was 0.0056. It also gave a Bliss excess [6] of 0.0205, a Bliss excess [7] of 0.0133 and a Bliss excess [8] of -0.151. It also gave a Bliss excess [9] of -0.0373, a Bliss excess [10] of -0.0104 and a Bliss excess [11] of 0.0372. For the same compound, the Bliss excess [12] was -0.0854, the Bliss excess [13] was -0.0005 and the Bliss excess [14] was -0.0351. It also gave a Bliss excess [15] of -0.0276, a Bliss excess (TGW (Neuroblastoma)) of -0.0744 and a Bliss excess (TK10 (Kidney Carcinoma)) of -0.0106. For the same compound, the Bliss excess (YH-13 (Glioblastoma)) was 0.0004 and the “combination Emax” value (D-263MG (Glioblastoma)) was 0.448.
`CC1(C)CCC(CN2CCN(c3ccc(C(=O)NS(=O)(=O)c4ccc(NCC5CCOCC5)c([N+](=O)[O-])c4)c(Oc4cnc5[nH]ccc5c4)c3)CC2)=C(c2ccc(Cl)cc2)C1` [Venetoclax] + Cc1cc2ncnn2cc1Nc1ncc2c(n1)n(C1CCOCC1)c(=O)n2C [AZD7648] (first compound max 1 µM, 7x7, partner max 10 µM) was tested, and the Bliss excess (ACHN (Kidney Carcinoma)) was -0.0244, the Bliss excess [1] was -0.0241 and the Bliss excess [2] was -0.0492. The Bliss excess [3] was -0.0711, the Bliss excess [4] was -0.058 and the Bliss excess [5] was -0.0756. It also gave a Bliss excess [6] of 0.0487, a Bliss excess [7] of -0.0515 and a Bliss excess [8] of -0.0418. The Bliss excess [9] was -0.0207, the Bliss excess [10] was 0.0282 and the Bliss excess [11] was 0.0247. It also gave a Bliss excess [12] of -0.0253, a Bliss excess [13] of -0.0062 and a Bliss excess [14] of -0.0617. The Bliss excess [15] was -0.0451, the Bliss excess (TGW (Neuroblastoma)) was 0.0025 and the Bliss excess (TK10 (Kidney Carcinoma)) was -0.102. The Bliss excess (YH-13 (Glioblastoma)) was -0.0484 and the “combination Emax” value (D-263MG (Glioblastoma)) was 0.179.
Compound `CC1(C)CCC(CN2CCN(c3ccc(C(=O)NS(=O)(=O)c4ccc(NCC5CCOCC5)c([N+](=O)[O-])c4)c(Oc4cnc5[nH]ccc5c4)c3)CC2)=C(c2ccc(Cl)cc2)C1` [Venetoclax] + C[C@@H]1COCCN1C2=NC(=NC(=C2)C3(CC3)[S@](=N)(=O)C)C4=C5C=CNC5=NC=C4 [AZD6738] (first compound max 1 µM, 7x7, partner max 10 µM) has a Bliss excess (ACHN (Kidney Carcinoma)) of -0.0445, a Bliss excess [1] of -0.0019 and a Bliss excess [2] of -0.0228. It also gave a Bliss excess [3] of -0.0649, a Bliss excess [4] of -0.0509 and a Bliss excess [5] of -0.0596. It also gave a Bliss excess [6] of -0.0328, a Bliss excess [7] of -0.061 and a Bliss excess [8] of -0.1. For the same compound, the Bliss excess [9] was -0.0224, the Bliss excess [10] was -0.0293 and the Bliss excess [11] was -0.035. For the same compound, the Bliss excess [12] was -0.0691, the Bliss excess [13] was -0.0599 and the Bliss excess [14] was -0.0168. The Bliss excess [15] was -0.0131, the Bliss excess (TGW (Neuroblastoma)) was -0.0202 and the Bliss excess (TK10 (Kidney Carcinoma)) was -0.102. For the same compound, the Bliss excess (YH-13 (Glioblastoma)) was -0.0325 and the “combination Emax” value (D-263MG (Glioblastoma)) was 0.515.
`COc1cccc(OCCCN)c1-c1cc(Nc2cnc(C#N)cn2)n[nH]1` [Prexasertib] + CCc1c2c(nc3ccc(O)cc13)-c1cc3c(c(=O)n1C2)COC(=O)[C@]3(O)CC [SN-38] (first compound max 1 µM, 7x7, partner max 0.3 µM) gave a Bliss excess (ACHN (Kidney Carcinoma)) of -0.0755, a Bliss excess [1] of 0.0163 and a Bliss excess [2] of -0.0332. It also gave a Bliss excess [3] of -0.0279, a Bliss excess [4] of -0.0372 and a Bliss excess [5] of -0.0063. It also gave a Bliss excess [6] of -0.0223, a Bliss excess [7] of 0.19 and a Bliss excess [8] of -0.0185. It also gave a Bliss excess [9] of -0.0212, a Bliss excess [10] of 0.0129 and a Bliss excess [11] of 0.0136. The Bliss excess [12] was 0.129, the Bliss excess [13] was -0.0477 and the Bliss excess [14] was -0.067. It also gave a Bliss excess [15] of -0.0025, a Bliss excess (TGW (Neuroblastoma)) of -0.0284 and a Bliss excess (TK10 (Kidney Carcinoma)) of -0.0257. The Bliss excess (YH-13 (Glioblastoma)) was 0.0079 and the “combination Emax” value (D-263MG (Glioblastoma)) was 0.955.
